Where a SMILES comes first, the peptide text is derived from it. [ ]: non-standard residue; d: D form. The star is where a group is joined. Boc = CC(C)(C)OC(=O)*; Nlys = NCCCCNCC(=O)O
Biological target: human PSMA (Homo sapiens (Human), UniProt Q04609)
Experiment: Enzymatic assay for in vitro evaluation of PSMA inhibitors (fluorescent assay of PSMA activity, NAAG substrate, OPA detection of glutamate)
Type: biochemical
Conditions: for PSMA Blkg % (10 μM): compound at 10 μM
Procedure: Enzymatic Assay for In Vitro Evaluation of PSMA Inhibitors
The inhibitory activity of all compounds was determined using a fluorescent assay of human PSMA activity. The enzyme used in the assay was purchased from R&D Systems and stored at −80° C. The PSMA activity was assayed in a two-step process. In the first step, aliquots of enzyme (0.2 μg/mL) were incubated for 1 h at 37° C. in 50 mM HEPES, 0.1 M NaCl, pH 7.5, in the presence of 20 μM NAAG and the given inhibitor, in a volume of 250 μL, to allow for the accumulation of glutamate produced in the PSMA reaction. In the second step, the amount of accumulated glutamate was measured using the OPA reaction, and the fluorescence was read with a SpectraMax fluorescent plate reader using excitation at 330 nm and emission at 450 nm. The final Ki values for each inhibitor were calculated from the respective IC50 values using the Cheng and Prusoff equation.

Chain of human PSMA (Q04609 whole entry): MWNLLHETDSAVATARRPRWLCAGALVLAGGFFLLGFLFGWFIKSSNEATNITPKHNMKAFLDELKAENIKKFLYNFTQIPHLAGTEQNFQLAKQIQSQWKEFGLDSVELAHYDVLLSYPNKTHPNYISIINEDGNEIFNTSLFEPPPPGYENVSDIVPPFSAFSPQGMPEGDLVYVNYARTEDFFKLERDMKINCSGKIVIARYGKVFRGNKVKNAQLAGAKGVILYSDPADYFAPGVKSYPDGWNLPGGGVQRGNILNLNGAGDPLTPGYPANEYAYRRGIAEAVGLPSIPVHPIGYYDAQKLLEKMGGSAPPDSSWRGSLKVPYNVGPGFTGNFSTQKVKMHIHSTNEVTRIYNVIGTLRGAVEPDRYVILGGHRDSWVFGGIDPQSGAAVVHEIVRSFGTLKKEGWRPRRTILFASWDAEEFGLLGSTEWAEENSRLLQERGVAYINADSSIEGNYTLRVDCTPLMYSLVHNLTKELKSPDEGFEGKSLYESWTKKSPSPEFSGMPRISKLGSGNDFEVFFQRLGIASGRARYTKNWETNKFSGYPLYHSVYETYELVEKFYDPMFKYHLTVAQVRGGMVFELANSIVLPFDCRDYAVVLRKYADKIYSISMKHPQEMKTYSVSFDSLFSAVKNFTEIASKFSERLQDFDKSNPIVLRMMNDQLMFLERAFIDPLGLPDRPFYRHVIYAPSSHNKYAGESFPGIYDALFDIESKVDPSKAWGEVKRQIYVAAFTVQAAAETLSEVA

Compound	Ki	PSMA Blkg % (10 μM)
O=C(O)CC[C@H](NC(=O)N[C@@H](CCCCNC(=O)CCCn1cc(CCCF)nn1)C(=O)O)C(=O)O [P045, (S)-2-(3-((S)-1-Carboxy-5-(4-(4-(3-fluoropropyl)-1H-1,2,3-triazol-1-yl)-butanamido)pentyl)ureido)pentanedioic Acid]	10.9 nM	95%
CN(C(=O)N[C@@H](CCC(=O)O)C(=O)O)[C@@H](CCCCNC(=O)CCCn1cc(CCCF)nn1)C(=O)O [P046, (S)-2-(3-((S)-1-Carboxy-5-(4-(4-(3-fluoropropyl)-1H-1,2,3-triazol-1-yl)-butanamido)pentyl)-3-methylureido)pentanedioic Acid]	328 nM	80%
CC(C)(C)OC(=O)NCCCCN(CC(=O)N[C@@H](CCC(=O)O)C(=O)O)C(N)=O [P047, (S)-2-(2-(1-(4-(tert-Butoxycarbonylamino)butyl)ureido)acetamido)pentanedioic Acid]		0%
CC(C)(C)OC(=O)NCCCCN(CC(=O)N[C@@H](CCC(=O)O)C(=O)O)C(=O)NC(N)=O [P048, (S)-2-(2-(1-(4-(tert-Butoxycarbonylamino)butyl)-3-carbamoylureido)acetamido) pentanedioic Acid]		0%
CC(C)(C)OC(=O)NCCCCN(CC(=O)O)CC(=O)N[C@@H](CCC(=O)O)C(=O)O [P049, (S)-2-(2-((4-(tert-Butoxycarbonylamino)butyl)(carboxymethyl)amino)acetamido) pentanedioic Acid]		0%
CC(C)(C)OC(=O)NCCCCN1CC(=O)N([C@@H](CCC(=O)O)C(=O)O)C(=O)C1 [P050, (S)-2-(4-(4-(tert-Butoxycarbonylamino)butyl)-2,6-dioxopiperazin-1-yl)pentanedioic Acid]		0%
CC(C)(C)OC(=O)NCCCCNCC(=O)N[C@@H](CCC(=O)O)C(=O)O [P051, (S)-2-(2-(4-(tert-Butoxycarbonylamino)butylamino)acetamido)pentanedioic Acid] (H-[Nlys](Boc)-Glu-OH)		4%
CCS(=O)(=O)N(CCc1ccccc1)CC(=O)NC(CCC(=O)O)C(=O)O (centres unmarked) [P052, 2-(2-(N-Phenethylethylsulfonamido)acetamido)pentanedioic Acid]		2%
CN(C(=O)N[C@@H](CCC(=O)O)C(=O)O)[C@@H](CCCCNC(=O)c1ccc(-n2cc(CCCF)nn2)cc1)C(=O)O [P053, (S)-2-(3-((S)-1-Carboxy-5-(4-(4-(3-fluoropropyl)-1H-1,2,3-triazol-1-yl)benzamido)pentyl)-3-methylureido)pentanedioic Acid]	31.3 nM	94%
O=C(O)CC[C@H](NC(=O)N[C@@H](CCCCNC(=O)c1ccc(-n2cc(CCCF)nn2)cc1)C(=O)O)C(=O)O [P054]	1.6 nM	100%
O=C(O)CC[C@@H](C(=O)O)N1C(=O)CC(=O)N([C@@H](CCCCNC(=O)OCc2ccccc2)C(=O)O)C1=O [P055, (S)-2-(3-((S)-5-(Benzyloxycarbonylamino)-1-carboxypentyl)-2,4,6-trioxotetrahydropyrimidin-1(2H)-yl)pentanedioic Acid]	344 nM	94%
O=C(O)CC[C@H](NC(=O)NNC(=O)OCc1ccccc1)C(=O)O [P056, (S)-2-(2-((Benzyloxy)carbonyl)hydrazinecarboxamido)pentanedioic Acid]		0%
[N-]=[N+]=Nc1ccc(C(=O)NCCCC[C@@H](C(=O)O)N2C(=O)CC(=O)N([C@@H](CCC(=O)O)C(=O)O)C2=O)cc1 [P057, (S)-2-(3-((S)-5-(4-Azidobenzamido)-1-carboxypentyl)-2,4,6-trioxotetrahydropyrimidin-1(2H)-yl)pentanedioic Acid]		32%
[N-]=[N+]=Nc1ccc(C(=O)NCCCC[C@H](NC(=O)N[C@@H](CCC(=O)O)C(=O)O)C(=O)O)cc1 [P058, (S)-2-(3-((S)-5-(4-Azidobenzamido)-1-carboxypentyl)ureido)pentanedioic Acid]		100%
CN(C(=O)N[C@@H](CCC(=O)O)C(=O)O)[C@@H](CCCCNC(=O)c1ccc(N=[N+]=[N-])cc1)C(=O)O [P059, (S)-2-(3-((S)-5-(4-Azidobenzamido)-1-carboxypentyl)-3-methylureido)pentanedioic Acid]	12.5 nM	99%
O=C(O)CCC(NC(=O)N[C@@H](CCC(=O)O)C(=O)O)C(=O)O (some centres unmarked) [P060]		96%

Compound	Ki	PSMA Blkg % (10 μM)
NNC(=O)N[C@@H](CCC(=O)O)C(=O)O [P061, (S)-2-(Hydrazinecarboxamido)pentanedioic Acid]		0%
[N-]=[N+]=NCCCC(=O)Nc1ccc(C[C@H](NC(=O)N[C@@H](CCC(=O)O)C(=O)O)C(=O)O)cc1 [P062, (S)-2-(3-((S)-2-(4-(4-Azidobutaneamido)phenyl)-1-carboxyethyl)-ureido)-pentanedioic Acid]		97%
CN(C(=O)N[C@@H](CCC(=O)O)C(=O)O)[C@@H](Cc1ccc(NC(=O)CCCN=[N+]=[N-])cc1)C(=O)O [P063, (S)-2-(3-((S)-2-(4-(4-Azidobutaneamido)phenyl)-1-carboxyethyl)-3-methylureido)-pentanedioic Acid]		30%
O=C(O)CC[C@@H](C(=O)O)N1C(=O)CC(=O)N([C@@H](CCCCNC(=O)c2ccc(-n3cc(CCCF)nn3)cc2)C(=O)O)C1=O [P064, (S)-2-(3-((S)-1-Carboxy-5-(4-(4-(3-fluoropropyl)-1H-1,2,3-triazol-1-yl)benzamido)pentyl)-2,4,6-trioxotetrahydropyrimidin-1(2H)-yl)pentanedioic Acid]		46%
CC(=O)N(CCCCN1C(=O)c2ccccc2C1=O)NC(=O)N[C@@H](CCC(=O)O)C(=O)O [P066, (S)-2-(2-Acetyl-2-(4-(1,3-dioxoisoindolin-2-yl)butyl)hydrazinecarboxamido)-pentanedioic Acid]		12%
O=C(O)CC[C@H](NC(=O)N[C@@H](Cc1ccc(NC(=O)CCCCCn2cc(CCCF)nn2)cc1)C(=O)O)C(=O)O [P067, (S)-2-(3-((S)-1-Carboxy-2-(4-(6-(4-(3-fluoropropyl)-1H-1,2,3-triazol-1-yl)hexamido)phenyl)ethyl)ureido)pentanedioic Acid]		52%
CN(C(=O)N[C@@H](CCC(=O)O)C(=O)O)[C@@H](Cc1ccc(NC(=O)CCCCCn2cc(CCCF)nn2)cc1)C(=O)O [P068]		27%
O=C(O)CC[C@H](NC(=O)N(O)C(CCCCNC(=O)OCc1ccccc1)C(=O)O)C(=O)O (stereo partly drawn) [P069, (13S)-10-Hydroxy-3,11-dioxo-1-phenyl-2-oxa-4,10,12-triazapentadecane-9,13,15-tricarboxylic Acid]	250 nM	94%
O=C(O)CC[C@H](NC(=S)NC(CCCCNC(=O)OCc1ccccc1)C(=O)O)C(=O)O (stereo partly drawn) [P070, (13S)-3-Oxo-1-phenyl-11-thioxo-2-oxa-4,10,12-triazapentadecane-9,13,15-tricarboxylic Acid]	59 nM	94%
O=C(O)CC[C@H](NC(=S)N(O)C(CCCCNC(=O)OCc1ccccc1)C(=O)O)C(=O)O (stereo partly drawn) [P071, (13S)-10-Hydroxy-3-oxo-1-phenyl-11-thioxo-2-oxa-4,10,12-triazapentadecane-9,13,15-tricarboxylic Acid]	31 nM	96%
O=C(O)CC[C@@H](C(=O)O)N1C(=O)C(=O)N([C@@H](CCCCNC(=O)OCc2ccccc2)C(=O)O)C1=O [P072, (S)-2-(3-((S)-5-(Benzyloxycarbonylamino)-1-carboxypentyl)-2,4,5-trioxoimidazolidin-1-yl)pentanedioic Acid]		39%
[N-]=[N+]=NCCCCC(=O)NCCCC[C@@H](C(=O)O)N1C(=O)CC(=O)N([C@@H](CCC(=O)O)C(=O)O)C1=O [P073, (S)-2-(3-((S)-5-(5-Azidopentanamido)-1-carboxypentyl)-2,4,6-trioxotetrahydropyrimidin-1(2H)-yl)pentanedioic Acid]		2%
O=C(O)CC[C@@H](C(=O)O)N1C(=O)CC(=O)N([C@@H](CCCCNC(=O)Cn2cc(CCCF)nn2)C(=O)O)C1=O [P074, (S)-2-(3-((S)-1-Carboxy-5-(2-(4-(3-fluoropropyl)-1H-1,2,3-triazol-1-yl)acetamido)pentyl)-2,4,6-trioxotetrahydropyrimidin-1(2H)-yl)pentanedioic Acid]		10%
O=C(O)CC[C@H](NC(=O)N1CCC[C@H]1C(=O)O)C(=O)O [P075, (S)-2-((S)-2-Carboxypyrrolidine-1-carboxamido)pentanedioic Acid]		32%
O=C(O)CC[C@@H](C(=O)O)N1C(=O)CC(=O)N([C@@H](CCCCNC(=O)CCCCn2cc(CCCF)nn2)C(=O)O)C1=O [P076, (S)-2-(3-((S)-1-Carboxy-5-(5-(4-(3-fluoropropyl)-1H-1,2,3-triazol-1-yl)pentanamido)pentyl)-2,4,6-trioxotetrahydropyrimidin-1(2H)-yl)pentanedioic Acid]		14%
CC1(C)C(=O)N([C@@H](CCCCNC(=O)OCc2ccccc2)C(=O)O)C(=O)N([C@@H](CCC(=O)O)C(=O)O)C1=O [P077, (S)-2-(3-((S)-5-(Benzyloxycarbonylamino)-1-carboxypentyl)-5,5-dimethyl-2,4,6-trioxotetrahydropyrimidin-1(2H)-yl)pentanedioic Acid]		28%

From patent publication US10894807B2 (Siemens Medical Solutions USA, Inc., priority 2011, dated 2021)
